According to patent publication US9249151B2, “Bis-amido pyridines” (Boehringer Ingelheim International GmbH, priority 2013, dated 2016):

Molecular target: BIR3 domain of human cIAP1 (amino acids 256 to 363; cIAP1 BIR3) (Homo sapiens (Human), UniProt Q13490)
Experiment: cIAP1 BIR3 binding assay (DELFIA)
Conditions: not given
Description: XIAP BIR3 and cIAP1 BIR3 Binding Assays (DELFIA)
Peptide […]-Lys(Biotin), representing the N-terminus of mature human SMAC (SMAC peptide), was used as interaction partner in the protein-peptide interaction assay.
BIR3 domains (10 nM) were incubated with SMAC peptide (10 nM) in assay buffer (50 mM Tris, 120 mM NaCl, 0.1% BSA, 1 mM DTT, 0.05% TritonX100) for one hour at room temperature in the presence of inhibitory compounds. The assay mixture was transferred to a streptavidin coated plate and incubated for one hour at room temperature to allow binding of the biotinylated peptide and associated BIR3 domains to the plate. After several washing steps Eu labeled anti-GST antibody (e.g. Perkin Elmer DELFIA Eu-N1-antiGST AD0250) was added to detect BIR3 domain-SMAC peptide interactions m according to Perkin Elmer's instructions. […] Time resolved Europium fluoresecence was measured in a Wallac Victor using Standard assay settings.
DELFIA assay results were plotted against compound concentrations and Software GraphPad Prizm was used to calculate half maximal inhibitory concentrations (IC50 values).

BIR3 domain of human cIAP1 (amino acids 256 to 363; cIAP1 BIR3), sequence (Q13490 256-363): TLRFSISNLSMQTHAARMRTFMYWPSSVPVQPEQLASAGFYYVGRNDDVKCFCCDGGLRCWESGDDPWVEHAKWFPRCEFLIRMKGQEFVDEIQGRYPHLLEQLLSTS

IC50 [nM]	Structure (SMILES)
34	CNC(C)C(=O)Nc1cc(-c2nc(C)nc3c(C)nn(C)c23)cc(NC(=O)c2ncc(Cl)cc2C)n1 (centres unmarked) [Example 60, 5-chloro-3-methyl-N-{6-[2-(methylamino)propanamido]-4-{trimethyl-1H-pyrazolo-[4,3-d]pyrimidin-7-yl}-pyridin-2-yl}pyridine-2-carboxamide]

Same assay, conditions: BIR3 domain 10 nM, SMAC peptide 10 nM; values represent the (S)-isomers; * = racemic compound; read-out: cIAP1 BIR-3 IC50

Structure (SMILES)	IC50 [nM]
Cc1cccc2ccn(-c3cc(NC(=O)c4ccc(Cl)cn4)nc(NC(=O)C(C)N)c3)c12 (centres unmarked) [Example 55, N-[6-(2-aminopropanamido)-4-(7-methyl-1H-indol-1-yl)pyridin-2-yl]-5-chloropyridine-2-carboxamide]	45
CC(N)C(=O)Nc1cc(Cl)cc(NC(=O)c2ccccn2)n1 (centres unmarked) [Example 56, N-[6-(2-aminopropanamido)-4-chloropyridin-2-yl]pyridine-2-carboxamide]	4600
Cc1ccc(C(=O)Nc2cccc(NC(=O)C(C)N)n2)nc1 (centres unmarked) [Example 57, N-[6-(2-aminopropanamido)pyridin-2-yl]-5-methylpyridine-2-carboxamide]	421
CNC(C)C(=O)Nc1cc(-c2nc(OC)nc3c(C)nn(C)c23)cc(NC(=O)c2ccc(Cl)cn2)n1 (centres unmarked) [Example 63, 5-chloro-N-(4-{5-methoxy-1,3-dimethyl-1H-pyrazolo[4,3-d]pyrimidin-7-yl}-6-[2-(methylamino)-propanamido]pyridin-2-yl)pyridine-2-carboxamide]	55

Continued, values first:

IC50 [nM]	Structure (SMILES)
1	CNC(C)C(=O)Nc1cc(-c2nc(C)nc3c(C)c(C)n(C)c23)cc(NC(=O)c2ccc(Cl)cn2)n1 (centres unmarked) [Example 59, 5-chloro-N-{6-[2-(methylamino)propanamido]-4-{tetramethyl-5H-pyrrolo[3,2-d]pyrimidin-4-yl}pyridin-2-yl}pyridine-2-carboxamide]
1	CNC(C)C(=O)Nc1cc(-c2ncnc3c(C)nn(C)c23)cc(NC(=O)c2ncc(Cl)cc2C)n1 (centres unmarked) [Example 61, 5-chloro-N-(4-{1,3-dimethyl-1H-pyrazolo[4,3-d]pyrimidin-7-yl}-6-[2-(methylamino)-propanamido]pyridin-2-yl)-3-methylpyridine-2-carboxamide]
1	CNC(C)C(=O)Nc1cc(-c2nc(C)nc3c(C)nn(C)c23)cc(NC(=O)c2ncc(Cl)cc2F)n1 (centres unmarked) [Example 62, 5-chloro-3-fluoro-N-{6-[2-(methylamino)propanamido]-4-{trimethyl-1H-pyrazolo-[4,3-d]pyrimidin-7-yl}-pyridin-2-yl)pyridine-2-carboxamide]
